# Assay results published in patent US6656906B1, “Hybrid polypeptides with enhanced pharmacokinetic properties” (Trimeris, Inc., priority 1998, dated 2003).
# Where two headings read alike, the source gives them in different places.
# Experiment: Plasma and lymphatic pharmacokinetic analysis after IV bolus
# Assay type: in vivo, rats
# Conditions: for clearance / AUC(0-inf) / Cmax / AUC(0-t) / half-life: rat, in vivo; for AUC(0-t): read-out: AUC(0-6h); for half-life: iv, IV bolus, read-out: t½, elimination (converted)
# Method: For plasma and lymphatic pharmacokinetic analysis of T1249 in rats, T1249 was prepared as a sterile solution in bicarbonate buffer and administered as a single dose, bolus intravenous injection into the lateral tail vain at a dose of […]. Blood was collected from the animal from an in-dwelling jugular catheter. Samples were collected immediately after dosing and at 5, 15, and 30 minutes, and 1, 2, 4, and 6 hours after drug administration. For the analysis of lymphatic fluids, samples were taken immediately before dosing and every 20 minutes for the first six hours after dosing. Lymphatic fluid was collected from a catheter placed directly into the thoracic lymphatic duct as previously described (Kirkpatrick and Silver, 1970, The Journal of Surgical Research 10:147-158).
smiles,measurement,setting,value
CC[C@H](C)[C@H](NC(=O)[C@H](CCC(N)=O)NC(=O)[C@H](C)NC(=O)[C@H](CCC(N)=O)NC(=O)[C@H](CCC(=O)O)NC(=O)[C@H](CC(C)C)NC(=O)[C@H](CC(C)C)NC(=O)[C@H](C)NC(=O)[C@@H](NC(=O)[C@@H](NC(=O)[C@H](CCCCN)NC(=O)[C@H](CCC(N)=O)NC(=O)[C@H](CCC(=O)O)NC(=O)[C@H](Cc1c[nH]c2ccccc12)NC(=O)[C@H](CCC(=O)O)NC(=O)[C@H](CCC(N)=O)NC(=O)[C@H](Cc1c[nH]c2ccccc12)NC(C)=O)[C@@H](C)CC)[C@@H](C)O)C(=O)N[C@@H](CCC(N)=O)C(=O)N[C@@H](CCC(N)=O)C(=O)N[C@@H](CCC(=O)O)C(=O)N[C@@H](CCCCN)C(=O)N[C@@H](CC(N)=O)C(=O)N[C@@H](CCC(=O)O)C(=O)N[C@@H](Cc1ccc(O)cc1)C(=O)N[C@@H](CCC(=O)O)C(=O)N[C@@H](CC(C)C)C(=O)N[C@@H](CCC(N)=O)C(=O)N[C@@H](CCCCN)C(=O)N[C@@H](CC(C)C)C(=O)N[C@@H](CC(=O)O)C(=O)N[C@@H](CCCCN)C(=O)N[C@@H](Cc1c[nH]c2ccccc12)C(=O)N[C@@H](C)C(=O)N[C@@H](CO)C(=O)N[C@@H](CC(C)C)C(=O)N[C@@H](Cc1c[nH]c2ccccc12)C(=O)N[C@@H](CCC(=O)O)C(=O)N[C@@H](Cc1c[nH]c2ccccc12)C(=O)N[C@@H](Cc1ccccc1)C(N)=O [T1249],time to equilibration of lymphatic system with the plasma reservoir,after IV administration,within approximately one hour
same,clearance,Lymph,0.192 mL/min
same,AUC(0-inf),"Lymph, averages exclude Rat #1",449 µg·h/mL
same,Cmax,"Lymph, averages exclude Rat #1",155 µg/mL
same,AUC(0-t),"Lymph, averages exclude Rat #1",411 µg·h/mL
same,AUC(0-inf),"Lymph, averages include Rat #1",390 µg·h/mL
same,Cmax,"Lymph, averages include Rat #1",133 µg/mL
same,AUC(0-t),"Lymph, averages include Rat #1",348 µg·h/mL
same,AUC(0-inf),Plasma,598 µg·h/mL
same,Cmax,Plasma,291 µg/mL
same,clearance,Plasma,0.13 mL/min
same,AUC(0-t),Plasma,506 µg·h/mL
same,half-life,Lymph,1.3 ± 0.27 h
same,half-life,Plasma,2.6 ± 0.41 h
